Assay results taken from patent US20260035411A1, “CRYSTALLINE FORMS OF A PCSK9 INHIBITOR, COMPOSITIONS AND USES” (MERCK SHARP & DOHME LLC, priority 2022, published 2026).
Entries after “also recorded” stand apart in the source; their conditions may differ. Read-outs that look alike come from different tables or passages of the source.

Legend:
[1] = XRPD analysis before and after adsorption/desorption cycles (physical stability, crystallinity); assay type: physicochemical
Procedure: X-ray powder diffraction studies are widely used to characterize molecular structures, crystallinity, and polymorphism. The X-ray powder diffraction patterns disclosed herein were generated on a Philips Analytical X′Pert PRO X-ray Diffraction System with PW3040/60 console. A PW3373/00 ceramic Cu LEF X-ray tube K-Alpha radiation was used as the source.
In addition, the chloride salt requires −20° C. storage to minimize chemical degradation while the acetate and caprate salts are less prone to degradation at higher temperatures. […] The stability of crystalline forms of the compounds of Formula I were characterized by XRPD under relative humidity conditions that simulate potential storage conditions.

[2] = Adsorption/desorption cycles under relative humidity (weight increase, hygroscopicity)

With `COc1ccc(C[C@@H]2NC(=O)[C@H]([C@@H](C)O)NC(=O)[C@@H]3[C@@H]4CCN3C(=O)[C@@H]3Cc5cn(c6ccc(F)cc56)CCCCCCN(Cc5ccc(cc5)CCNC(=O)[C@]5(C)CCCN5C2=O)C(=O)CCC(=O)N[C@@H](C)C(=O)N[C@H](CNC(=O)CCCCC[N+](C)(C)C)C(=O)N[C@@H](Cc2cccc(c2)CNC(=O)CO4)C(=O)N3)cc1` [Caprate 3] as the compound, how does the “crystallinity by XRPD after adsorption/desorption” value [1] read?
The value was “maintains its crystallinity; also recorded: retains crystallinity”.

And the increase in weight [2]?
The increase in weight was about 4.9%.

What about the “relative humidity by which H2O is readily absorbed” value [2] of the same compound?
Its value is 25-35 % RH.

And the “relative humidity until which H2O is not lost” value [2]?
Its value is 15 % RH.

Which “crystallinity by XRPD after adsorption/desorption” value [1] does the source give for `COc1ccc(C[C@@H]2NC(=O)[C@H]([C@@H](C)O)NC(=O)[C@@H]3[C@@H]4CCN3C(=O)[C@@H]3Cc5cn(c6ccc(F)cc56)CCCCCCN(Cc5ccc(cc5)CCNC(=O)[C@]5(C)CCCN5C2=O)C(=O)CCC(=O)N[C@@H](C)C(=O)N[C@H](CNC(=O)CCCCC[N+](C)(C)C)C(=O)N[C@@H](Cc2cccc(c2)CNC(=O)CO4)C(=O)N3)cc1` [water-free Caprate 3] here?
Its value is “retains crystallinity”.

What about the increase in weight [2] of the same compound?
The increase in weight was about 9.4%.

What does the source list for `COc1ccc(C[C@@H]2NC(=O)[C@H]([C@@H](C)O)NC(=O)[C@@H]3[C@@H]4CCN3C(=O)[C@@H]3Cc5cn(c6ccc(F)cc56)CCCCCCN(Cc5ccc(cc5)CCNC(=O)[C@]5(C)CCCN5C2=O)C(=O)CCC(=O)N[C@@H](C)C(=O)N[C@H](CNC(=O)CCCCC[N+](C)(C)C)C(=O)N[C@@H](Cc2cccc(c2)CNC(=O)CO4)C(=O)N3)cc1` [Acetate 4]?
crystallinity by XRPD after adsorption/desorption ([1]; 5-95-5% RH adsorption/desorption cycle (FIG. 31B, 33B)): loses crystallinity; crystallinity by XRPD after adsorption/desorption ([1]; two adsorption/desorption cycles of 5-55% RH (FIG. 30B)): retains minimal crystallinity; also recorded: decrease in crystallinity; hysteresis during the desorption step ([2]; 5-95% RH cycle (FIG. 31A)): Hysteresis is observed; increase in weight ([2]; at 55% RH (FIG. 30A)): ~9%; increase in weight ([2]; at 95% RH (FIG. 31A, 33A)): ~40%

For `COc1ccc(C[C@@H]2NC(=O)[C@H]([C@@H](C)O)NC(=O)[C@@H]3[C@@H]4CCN3C(=O)[C@@H]3Cc5cn(c6ccc(F)cc56)CCCCCCN(Cc5ccc(cc5)CCNC(=O)[C@]5(C)CCCN5C2=O)C(=O)CCC(=O)N[C@@H](C)C(=O)N[C@H](CNC(=O)CCCCC[N+](C)(C)C)C(=O)N[C@@H](Cc2cccc(c2)CNC(=O)CO4)C(=O)N3)cc1` [Caprate 5], which “crystallinity by XRPD after adsorption/desorption” value [1] is on record?
The value was “retains some crystallinity; also recorded: loses crystallinity; also recorded: decrease in crystallinity”.

And the “hysteresis during the desorption steps” value [2]?
Its value is “Slight hysteresis is observed”.
